Data taken from article PMC8379015, “Resistance of Mycobacterium tuberculosis to indole 4-carboxamides occurs through alterations in drug metabolism and tryptophan biosynthesis” (Cell Chemical Biology, 2021).
Values after ≈ are worked out from the molar mass of the structure shown.

Assays:
[1] = system: M. tuberculosis H37Rv mutant 5H (amiC + g in aa352); assay type: cell-based, Mycobacterium tuberculosis
[2] = system: M. tuberculosis H37Rv mutant 5I (amiC + g in aa352); assay type: cell-based, Mycobacterium tuberculosis
[3] = system: M. tuberculosis H37Rv mutant 5G (amiC S157F); assay type: cell-based, Mycobacterium tuberculosis
[4] = system: M. tuberculosis H37Rv mutant 5A (amiC K195∗); assay type: cell-based, Mycobacterium tuberculosis
[5] = system: M. tuberculosis H37Rv mutant 5M (trpB D261G); assay type: cell-based, Mycobacterium tuberculosis
[6] = system: M. tuberculosis H37Rv mutant 5B (amiC W238∗); assay type: cell-based, Mycobacterium tuberculosis
[7] = system: M. tuberculosis H37Rv recombineered trpB / trpE mutant strains; assay type: cell-based, Mycobacterium tuberculosis
C5R mutants of Mtb = assay type: cell-based, Mycobacterium tuberculosis
[8] = system: M. tuberculosis H37Rv mutant 5K (trpB A134V); assay type: cell-based, Mycobacterium tuberculosis
[9] = system: M. tuberculosis H37Rv mutant 5L (trpE H170R); assay type: cell-based, Mycobacterium tuberculosis
[10] = system: M. tuberculosis H37Rv mutant 5J (trpB A168V); assay type: cell-based, Mycobacterium tuberculosis
[11] = system: C1-resistant mutants of M. tuberculosis; assay type: cell-based, Mycobacterium tuberculosis
[12] = system: M. tuberculosis H37Rv mutant 5O (trpB D261G); assay type: cell-based, Mycobacterium tuberculosis
[13] = system: M. tuberculosis H37Rv mutant 5N (trpA D54G); assay type: cell-based, Mycobacterium tuberculosis
TrpE H170R = TrpE H170R (Mycobacterium tuberculosis, UniProt P9WFX3, H170R); assay type: biochemical
[14] = system: M. tuberculosis H37Rv overexpressing AmiC (rv2888c, Psmyc); assay type: cell-based, Mycobacterium tuberculosis

Row | Compound | MIC [1] [µM] | MIC [2] [µM] | MIC [3] [µM] | MIC [4] [µM] | MIC [5] [µM] | MIC [6] [µM] | resistance of recombineered strains [7] | MIC [8] [µM] | MIC [9] [µM] | MIC [10] [µM] | MIC [12] [µM] | MIC [13] [µM] | cross-resistance of C1-resistant mutants [11] | also measured
1 | Nc1cccc2[nH]ccc12 [4-AI, 4-aminoindole, reference compound] | 4.68 (≈ 0.619 µg/mL) | 4.68 (≈ 0.619 µg/mL) | 4.68 (≈ 0.619 µg/mL) | 4.68 (≈ 0.619 µg/mL) | 100 (≈ 13.2 µg/mL) | 4.68 (≈ 0.619 µg/mL) | resistant | 100 (≈ 13.2 µg/mL) | 100 (≈ 13.2 µg/mL) | 100 (≈ 13.2 µg/mL) | 100 (≈ 13.2 µg/mL) | 100 (≈ 13.2 µg/mL) |  | cross-resistance of C5R mutants (C5R mutants of Mtb): no cross-resistance; shift in MIC [9]: approximately 4 fold; cross-resistance of amiC mutants [11]: not cross-resistant; resistance of trpABE mutants [11]: highly resistant
2 | O=C(COc1ccccc1)Nc1cccc2[nH]ccc12 [C2, N-(1H-indol-4-yl)-2-phenoxyacetamide] | 75 (≈ 20 µg/mL) | 75 (≈ 20 µg/mL) | 75 (≈ 20 µg/mL) | 75 (≈ 20 µg/mL) | 25 (≈ 6.66 µg/mL) | 75 (≈ 20 µg/mL) | resistant | 25 (≈ 6.66 µg/mL) | 25 (≈ 6.66 µg/mL) | 25 (≈ 6.66 µg/mL) | 25 (≈ 6.66 µg/mL) | 25 (≈ 6.66 µg/mL) | cross-resistant | 
3 | O=C(Nc1cccc2[nH]ccc12)C1CCCCC1 [C3, N-(1H-indol-4-yl)cyclohexanecarboxamide] | >100 | >100 | >100 | >100 | >100 | >100 |  | >100 | >100 | >100 | >100 | >100 | cross-resistant | 
4 | O=C(Nc1cccc2[nH]ccc12)c1ccc(OCC(F)(F)F)cn1 [C4, N-(1H-indol-4-yl)-5-(2,2,2-trifluoroethoxy)picolinamide] | 75 (≈ 25.1 µg/mL) | 75 (≈ 25.1 µg/mL) | 75 (≈ 25.1 µg/mL) | 75 (≈ 25.1 µg/mL) | 25 (≈ 8.38 µg/mL) | 75 (≈ 25.1 µg/mL) |  | 25 (≈ 8.38 µg/mL) | 25 (≈ 8.38 µg/mL) | 25 (≈ 8.38 µg/mL) | 25 (≈ 8.38 µg/mL) | 25 (≈ 8.38 µg/mL) | cross-resistant | 
5 | CNS(=O)(=O)c1ccc2c(c1)CCN2C(=O)c1ccc(C)s1 [C5, reference compound] | 0.39 (≈ 0.131 µg/mL) | 0.39 (≈ 0.131 µg/mL) | 0.39 (≈ 0.131 µg/mL) | 0.39 (≈ 0.131 µg/mL) | 0.098 (≈ 0.033 µg/mL) | 0.39 (≈ 0.131 µg/mL) |  | 0.39 (≈ 0.131 µg/mL) | 0.39 (≈ 0.131 µg/mL) | 0.39 (≈ 0.131 µg/mL) | 0.19 (≈ 0.0639 µg/mL) | 0.19 (≈ 0.0639 µg/mL) |  | cross-resistance of mutants raised against C1 [11]: None of the resistant mutants raised against C1 were cross-resistant; susceptibility of one C1R mutant relative to WT [11]: more susceptible
6 | NNC(=O)c1ccncc1 [INH, isoniazid, reference compound] | 0.12 (≈ 0.0165 µg/mL) | 0.12 (≈ 0.0165 µg/mL) | 0.12 (≈ 0.0165 µg/mL) | 0.12 (≈ 0.0165 µg/mL) | 0.12 (≈ 0.0165 µg/mL) | 0.12 (≈ 0.0165 µg/mL) | not | 0.12 (≈ 0.0165 µg/mL) | 0.12 (≈ 0.0165 µg/mL) | 0.12 (≈ 0.0165 µg/mL) | 0.12 (≈ 0.0165 µg/mL) | 0.12 (≈ 0.0165 µg/mL) |  | 
7 | N[C@@H](Cc1c[nH]c2ccccc12)C(=O)O [L-Trp, L-tryptophan] |  |  |  |  |  |  |  |  |  |  |  |  |  | loss of sensitivity to allosteric inhibition, H170R vs WT (TrpE H170R): 250 times
8 | N-(1H-indol-4-yl)-6-(2,2,2-trifluoroethoxy)nicotinamide [C1] | >100 | >100 | >100 | >100 | 6.25 | >100 | resistant | 6.25 | 6.25 | 6.25 | 6.25 | 6.25 |  | cross-resistance of C5R mutants (C5R mutants of Mtb): no cross-resistance; change in MIC on overexpression of AmiC [14]: did not result in a noticeable change in MIC
